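Grown in 96-well plates, cells were treated for 48 hours with each compound at five concentrations. Insufficient inhibition: endpoint recorded as highest concentration tested. The concentration for 50% growth inhibition is given as GI50. TGI marks complete inhibition of growth.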
Columns and labels:
Assay in all cases: NCI-60 cell line screen, 48 h
LOX IMVI melanoma = system: LOX IMVI melanoma
SK-OV-3 ovarian = system: SK-OV-3 ovarian
EKVX NSCLC = system: EKVX NSCLC
UACC-257 melanoma = system: UACC-257 melanoma
NCI-H226 lung = system: NCI-H226 lung
OVCAR-4 ovarian = system: OVCAR-4 ovarian
HT29 colon = system: HT29 colon
OVCAR-3 ovarian = system: OVCAR-3 ovarian
NCI-H522 lung = system: NCI-H522 lung
A549 NSCLC = system: A549 NSCLC

Structure (SMILES)	GI50 (LOX IMVI melanoma) [µM]	TGI (LOX IMVI melanoma) [µM]	GI50 (SK-OV-3 ovarian) [µM]	TGI (SK-OV-3 ovarian) [µM]	GI50 (EKVX NSCLC) [µM]	TGI (EKVX NSCLC) [µM]	GI50 (UACC-257 melanoma) [µM]	TGI (UACC-257 melanoma) [µM]	GI50 (NCI-H226 lung) [µM]	TGI (NCI-H226 lung) [µM]	GI50 (OVCAR-4 ovarian) [µM]	TGI (OVCAR-4 ovarian) [µM]	GI50 (HT29 colon) [µM]	TGI (HT29 colon) [µM]	GI50 (OVCAR-3 ovarian) [µM]	TGI (OVCAR-3 ovarian) [µM]	GI50 (NCI-H522 lung) [µM]	TGI (NCI-H522 lung) [µM]	GI50 (A549 NSCLC) [µM]	TGI (A549 NSCLC) [µM]
O=c1nc2oc3ccc4ccccc4c3cc-2s1	4.09	> 100	15.1	> 100	59.6	> 100	> 69.9	> 100	17.7	> 100	58.4	> 100	18	> 100	0.457	> 23.7	0.596	> 100	> 92.7	> 100
O=C(c1ccccc1)c1cccc(C(=O)c2ccccc2)c1		> 100		> 100		> 100		> 100		> 100		> 100		> 100		> 100		> 100		> 100
CCOc1ccccc1N=Nc1c(C)[nH]n(-c2nc(-c3ccccc3)cs2)c1=O	> 100	> 100	38.9	> 100	32.6	> 100	52.5	> 100	32.5	> 100	25	> 84.5	97.9	> 100	57.7	> 100	22.1	87.6	49.9	> 100
CC[C@H](CO)Nc1nc(NCc2ccccc2)n2ncc(C(C)C)c2n1	1.07	10.3	5.55	40.2	2.41	9.13	3.56	15	1.84	10.1	2.58	37	2	15.5	1.15	4.6	1.46	8.98	1.58	41.4
CN(C)c1ccc2c(c1)OC(N)=C(C#N)C2c1ccc2c(c1)CCO2 (stereo not drawn)	0.053	17.9	0.224	> 73.9	0.47	> 100	27	> 100	2.38	> 62.4	0.704	> 100	0.321		< 0.0213	1.88	< 0.0239		0.198	> 100
COc1c2c(nc3ccccc13)-c1cc3c(c(=O)n1C2)COC(=O)C3(O)CC(=O)N1CCOCC1 (stereo not drawn)		16.5		68.3		> 93.6		98.4		22.9		> 100		68		55		31.4		> 92.4
CC(=O)C1C(=O)C(=O)N(c2ccccc2C(C)C)C1=O (stereo not drawn)		> 100		> 100		> 100		> 100		> 100		> 100		> 100		> 100		> 100		> 100
